# Measurements taken from the supplement of paper PMC10307832.
# Columns and labels:
# Experiment in all cases: relative viability (nuclei count vs DMSO), 5 days (fraction); higher = more cells survive
# NCI-H358 = test system: NCI-H358
# In short: (§1)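 Dosing by pin tool came one day after lung cancer cell lines were seeded in 1536-well plates, using either one drug or a fixed anchor-drug dose plus five library-drug doses (not always all listed) in √10 steps. After 5 days, nuclei were counted on 4× images. Relative viability is treated-well nuclei count divided by vehicle-well nuclei count, and values are medians of duplicate plates.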
# NCI-H1650 = test system: NCI-H1650
# In short: as §1
# NCI-H2347 = test system: NCI-H2347
# In short: as §1
# SW 1573 = test system: SW 1573
# In short: as §1
# LXF-289 = test system: LXF-289
# In short: as §1
# PC-14 = test system: PC-14
# In short: as §1
# NCI-H2342 = test system: NCI-H2342
# In short: as §1
# NCI-H1563 = test system: NCI-H1563
# In short: as §1
# SK-LU-1 = test system: SK-LU-1
# In short: as §1
# LCLC-97TM1 = test system: LCLC-97TM1
# In short: as §1
# NCI-H647 = test system: NCI-H647
# In short: as §1
# NCI-H1993 = test system: NCI-H1993
# In short: as §1
# NCI-H2009 = test system: NCI-H2009
# In short: as §1
# H3255 = test system: H3255
# In short: as §1
# HOP-62 = test system: HOP-62
# In short: as §1
# NCI-H2023 = test system: NCI-H2023
# In short: as §1
# EMC-BAC-2 = test system: EMC-BAC-2
# In short: as §1
# NCI-H1915 = test system: NCI-H1915
# In short: as §1
# BEN = test system: BEN
# In short: as §1
# NCI-H661 = test system: NCI-H661
# In short: as §1
# NCI-H322M = test system: NCI-H322M
# In short: as §1
# NCI-H2085 = test system: NCI-H2085
# In short: as §1
# NCI-H2126 = test system: NCI-H2126
# In short: as §1
smiles,measurement,setting,value
CC(C)Oc1cc(Nc2nc(N[C@@H](C)c3ccc(F)cn3)ncc2Cl)n[nH]1 [AZ23] + Nc1nc2[nH]cc(CCc3ccc(C(=O)N[C@@H](CCC(=O)O)C(=O)O)cc3)c2c(=O)[nH]1 [Pemetrexed] (partner 0.2 µM),relative viability,NCI-H358; first compound 0.01 µM,0.151
same,relative viability,NCI-H358; first compound 0.03162 µM,0.175
same,relative viability,NCI-H358; first compound 0.3162 µM,0.17
same,relative viability,NCI-H1650; first compound 0.01 µM,0.295
same,relative viability,NCI-H1650; first compound 0.03162 µM,0.406
same,relative viability,NCI-H1650; first compound 0.3162 µM,0.359
same,relative viability,NCI-H2347; first compound 0.01 µM,0.379
same,relative viability,NCI-H2347; first compound 0.03162 µM,0.412
same,relative viability,NCI-H2347; first compound 0.3162 µM,0.459
same,relative viability,SW 1573; first compound 0.01 µM,0.958
same,relative viability,SW 1573; first compound 0.03162 µM,0.792
same,relative viability,SW 1573; first compound 0.3162 µM,0.849
same,relative viability,LXF-289; first compound 0.01 µM,1.02
same,relative viability,LXF-289; first compound 0.03162 µM,0.974
same,relative viability,LXF-289; first compound 0.3162 µM,0.99
same,relative viability,PC-14; first compound 0.01 µM,0.127
same,relative viability,PC-14; first compound 0.03162 µM,0.136
same,relative viability,PC-14; first compound 0.3162 µM,0.147
same,relative viability,NCI-H2342; first compound 0.01 µM,0.903
same,relative viability,NCI-H2342; first compound 0.03162 µM,0.811
same,relative viability,NCI-H2342; first compound 0.3162 µM,0.776
same,relative viability,NCI-H1563; first compound 0.01 µM,0.69
same,relative viability,NCI-H1563; first compound 0.03162 µM,0.934
same,relative viability,NCI-H1563; first compound 0.3162 µM,0.885
same,relative viability,SK-LU-1; first compound 0.03162 µM,1.13
same,relative viability,SK-LU-1; first compound 0.3162 µM,1.06
same,relative viability,LCLC-97TM1; first compound 0.01 µM,0.138
same,relative viability,LCLC-97TM1; first compound 0.03162 µM,0.193
same,relative viability,LCLC-97TM1; first compound 0.3162 µM,0.166
same,relative viability,NCI-H647; first compound 0.01 µM,0.151
same,relative viability,NCI-H647; first compound 0.03162 µM,0.192
same,relative viability,NCI-H647; first compound 0.3162 µM,0.182
same,relative viability,NCI-H1993; first compound 0.01 µM,0.589
same,relative viability,NCI-H1993; first compound 0.03162 µM,0.564
same,relative viability,NCI-H1993; first compound 0.3162 µM,0.563
same,relative viability,NCI-H2009; first compound 0.01 µM,1.16
same,relative viability,NCI-H2009; first compound 0.03162 µM,1.1
same,relative viability,NCI-H2009; first compound 0.3162 µM,1.02
same,relative viability,H3255; first compound 0.01 µM,0.536
same,relative viability,H3255; first compound 0.03162 µM,0.603
same,relative viability,H3255; first compound 0.3162 µM,0.577
same,relative viability,HOP-62; first compound 0.01 µM,0.287
same,relative viability,HOP-62; first compound 0.03162 µM,0.359
same,relative viability,HOP-62; first compound 0.3162 µM,0.359
same,relative viability,NCI-H2023; first compound 0.03162 µM,0.268
same,relative viability,NCI-H2023; first compound 0.3162 µM,0.219
same,relative viability,EMC-BAC-2; first compound 0.01 µM,0.493
same,relative viability,EMC-BAC-2; first compound 0.03162 µM,0.46
same,relative viability,EMC-BAC-2; first compound 0.3162 µM,0.442
same,relative viability,NCI-H1915; first compound 0.01 µM,0.463
same,relative viability,NCI-H1915; first compound 0.03162 µM,0.485
same,relative viability,NCI-H1915; first compound 0.3162 µM,0.607
same,relative viability,BEN; first compound 0.01 µM,0.634
same,relative viability,BEN; first compound 0.03162 µM,0.892
same,relative viability,BEN; first compound 0.3162 µM,0.732
same,relative viability,NCI-H661; first compound 0.01 µM,0.864
same,relative viability,NCI-H661; first compound 0.03162 µM,0.925
same,relative viability,NCI-H661; first compound 0.3162 µM,0.927
same,relative viability,NCI-H322M; first compound 0.01 µM,0.536
same,relative viability,NCI-H322M; first compound 0.03162 µM,0.617
same,relative viability,NCI-H322M; first compound 0.3162 µM,0.689
same,relative viability,NCI-H2085; first compound 0.01 µM,0.806
same,relative viability,NCI-H2085; first compound 0.03162 µM,0.907
same,relative viability,NCI-H2085; first compound 0.3162 µM,0.994
same,relative viability,NCI-H2126; first compound 0.01 µM,0.62
same,relative viability,NCI-H2126; first compound 0.03162 µM,0.695
same,relative viability,NCI-H2126; first compound 0.3162 µM,0.679
